Results on 49 compounds are retold here after ChEMBL document CHEMBL3301451, “MMV Malaria Box gametocyte functional viability assay screening”.

Molecules are shown by their SMILES.

What all share (type): functional
Holding throughout (design): concentration or dose not given beside the values

Experiment [1] deals with Plasmodium falciparum. In words: MMV: P. falciparum NF54 functionally mature Stage V gametocytes were incubated for 24 hr in the presence of the test compounds. Gamete formation was then triggered by addition of 2uM xantheurenic acid and temperature decrease to ~20C. Male gamete exflagellation was recorded and analysed by automated microscopy after 20 min. All compounds were tested in 4 independent experiments and data presented here is the mean.

The next experiment concerns Plasmodium berghei. In words: MMV: P. berghei-infected blood was withdrawn from mice by cardiac pucture before being immediately added to ookinete culture medium containing test compounds. 26 hr later, GFP-positive ookinetes were identified and counted by automated microscopy. All compounds were tested in 4 independent experiments and data presented here is the mean.

Experiment [2] deals with Plasmodium falciparum. The experiment can be described thus: MMV: P. falciparum NF54 functionally mature Stage V gametocytes were incubated for 24 hr in the presence of the test compounds. Gamete formation was then triggered by addition of 2uM xantheurenic acid and temperature decrease to ~20C. Female gamete formation was recorded 24 hr later by automated microscopy detection of surface labelling of female gametes with a Cy3-conjugated antibody reactive to Pfs25. All compounds were tested in 4 independent experiments and data presented here is the mean. Particulars: NF54, 24 h.

Turning to `N=c1n(CCN2CCCCC2)c2ccccc2n1CC(=O)c1ccc(Cl)c(Cl)c1`, the inhibition in the experiment with Plasmodium falciparum [1] is -14.4%; in the experiment with Plasmodium berghei, -13.93%; with Plasmodium falciparum [2], -16.3%.

Turning to `CCOc1c(Cl)cc(CNCC(O)c2ccccc2)cc1OC` (configuration not stated), the inhibition in the experiment with Plasmodium falciparum [1] is -11.9%; in the experiment with Plasmodium berghei, -11.86%; in the experiment with Plasmodium falciparum [2], -14.1%.

As to `COc1ccc(CCN2C(=O)c3[nH]nc(-c4cc(Cl)c(C)cc4O)c3C2c2ccccc2F)cc1` (configuration not stated), the values for the inhibition with Plasmodium falciparum [1], with Plasmodium berghei and with Plasmodium falciparum [2] were -17.3%, -13.65% and -34.2%, respectively.

On to `CC(C)(C)CC(C)(C)NCC(O)COc1ccc(Cl)cc1Cl` (configuration not stated), for which the figures for the inhibition with Plasmodium falciparum [1], with Plasmodium berghei and in the experiment with Plasmodium falciparum [2] were -10.7%, -15.58% and -45.2%, respectively.

In the case of `COc1ccc(-n2ccnc2SCC(=O)Nc2cc(C)ccc2C)c(OC)c1`, the inhibition was 12% in the experiment with Plasmodium falciparum [1], -11.96% in the experiment on Plasmodium berghei and -9.31% in the experiment on Plasmodium falciparum [2].

Consider `Cl.N=c1n(CCN2CCCCC2)c2ccccc2n1CC(O)c1cccc(Br)c1` (configuration not stated), for which the inhibition in the experiment with Plasmodium falciparum [1] is -19.3%; with Plasmodium berghei, -14.54%; in the experiment with Plasmodium falciparum [2] it was -26.6%.

On to `CCN1CCN(Cc2ccc(NC(=O)c3cc4ccc5cccnc5c4[nH]3)cc2)CC1`, for which the values for the inhibition with Plasmodium falciparum [1], in the experiment on Plasmodium berghei and with Plasmodium falciparum [2] were 15.9%, -14.48% and -5.39%, respectively.

Take `COc1cccc(Nc2nc(NCCO)c3ccccc3n2)c1.Cl`: the inhibition is -137% with Plasmodium falciparum [1], -13.29% in the experiment on Plasmodium berghei and -29.6% with Plasmodium falciparum [2].

With `O=C(O)C1Cc2c([nH]c3ccccc23)C(c2ccc(Cl)cc2Cl)N1` (configuration not stated), the inhibition is 21% in the experiment with Plasmodium falciparum [1], -13.83% in the experiment on Plasmodium berghei and -17.3% in the experiment with Plasmodium falciparum [2].

Regarding `CCOc1ccc(N2C(N)=NC(N)=NC2(C)C)cc1.Cl`, the inhibition with Plasmodium falciparum [1] is 66.8%; in the experiment on Plasmodium berghei, -12.23%; in the experiment with Plasmodium falciparum [2], -42%.

As for `Cc1ccc(N2C(=O)C3C(C2=O)C2(c4ccccc4)C(=O)C3(c3ccccc3)C(c3ccccc3)=C2c2ccccc2)cc1` (configuration not stated), the figures for the inhibition in the experiment with Plasmodium falciparum [1], in the experiment with Plasmodium berghei and in the experiment on Plasmodium falciparum [2] were 21.2%, -15.1% and -19.9%, respectively.

As to `CCCCCCc1cc2cc(-c3csc(C=Cc4ccccc4)n3)c(=O)oc2cc1O`, the inhibition is -65.7% with Plasmodium falciparum [1], -12.07% with Plasmodium berghei and -35.1% with Plasmodium falciparum [2].

For `CN(C)CCCNCc1ccc(-c2ccc(F)c(Cl)c2)o1.Cl`, the inhibition with Plasmodium falciparum [1] was 51.9%; with Plasmodium berghei, -12.37%; with Plasmodium falciparum [2] it was 38.4%.

For `CCC(c1ccccc1)c1nn2c(-c3cccs3)nnc2s1` (configuration not stated), the inhibition in the experiment on Plasmodium falciparum [1] was 1.43%; with Plasmodium berghei it was -15.76%; in the experiment on Plasmodium falciparum [2], -48.4%.

As for `CCOc1ccc(CN2CCN(CC(O)COc3ccc(OCC(O)CN4CCN(Cc5ccc(OCC)cc5)CC4)cc3)CC2)cc1` (configuration not stated), the inhibition in the experiment on Plasmodium falciparum [1] is -9.77%; with Plasmodium berghei, -13.58%; in the experiment with Plasmodium falciparum [2], -37.4%.

Turning to `CCN(CC)CCn1c(=N)n(CC(O)c2ccc(Cl)c(Cl)c2)c2ccccc21.Cl` (configuration not stated), the inhibition in the experiment on Plasmodium falciparum [1] was -66.5%; in the experiment with Plasmodium berghei, -13%; in the experiment with Plasmodium falciparum [2] it was 7.92%.

On to `O=C(NC1CCN(Cc2ccccc2)CC1)c1cc(C(=O)NC2CCN(Cc3ccccc3)CC2)cc(C(=O)NC2CCN(Cc3ccccc3)CC2)c1`, for which the values for the inhibition in the experiment on Plasmodium falciparum [1], in the experiment with Plasmodium berghei and in the experiment on Plasmodium falciparum [2] were 57%, -11.8% and -6.87%, respectively.

For `Nc1ccc(-c2nc3cc(Cc4ccc5[nH]c(-c6ccc(N)cc6)nc5c4)ccc3[nH]2)cc1`, the inhibition with Plasmodium falciparum [1] is 26.6%; in the experiment on Plasmodium berghei, -14.26%; in the experiment on Plasmodium falciparum [2], 2.76%.

Turning to `COc1ccc(CNC2CCN(c3ccc(NC(=O)c4cccc(Cl)c4)cc3)CC2)cc1OC`, the figures for the inhibition with Plasmodium falciparum [1], in the experiment on Plasmodium berghei and in the experiment with Plasmodium falciparum [2] were 15%, -11.96% and -36.5%, respectively.

With `CCOc1ccc2nc(C)cc(Nc3ccc(N(C)C)cc3)c2c1.Cl`, the inhibition in the experiment with Plasmodium falciparum [1] was -23.6%; with Plasmodium berghei, -13.58%; with Plasmodium falciparum [2], -42.3%.

In the case of `COc1ccc(NC(=O)C2c3ccccc3C(=O)N(CC(C)C)C2c2cccs2)cc1Cl` (configuration not stated), the inhibition is 8.99% with Plasmodium falciparum [1], -15.31% in the experiment on Plasmodium berghei and -2.16% in the experiment on Plasmodium falciparum [2].

As for `Cc1ccc(OCCCCCCNCCO)c(C)c1`, the inhibition with Plasmodium falciparum [1] is -19.1%; with Plasmodium berghei, -11.75%; in the experiment on Plasmodium falciparum [2] it was 0.189%.

Take `COCCn1c(C)nc2ccccc2c1=O`: the values for the inhibition in the experiment on Plasmodium falciparum [1], in the experiment with Plasmodium berghei and in the experiment with Plasmodium falciparum [2] were 22.3%, -11.98% and -15.4%, respectively.

As for `O=C(Nc1cccc(-c2nc3ccccc3[nH]2)c1)c1cccc(NC(=O)c2ccco2)c1`, the inhibition in the experiment with Plasmodium falciparum [1] was 31.6%; with Plasmodium berghei it was -15.24%; in the experiment on Plasmodium falciparum [2] it was -35.1%.

With `O=C(NC1CCN(Cc2ccccc2)CC1)c1cc(-c2cccnc2)nc2ccc(Cl)cc12`, the inhibition is -6.01% in the experiment on Plasmodium falciparum [1], -13.2% with Plasmodium berghei and -32.7% in the experiment on Plasmodium falciparum [2].

For `COc1ccc(C(=O)C(CCC(CNC(C)(C)C)C(=O)c2ccc(OC)cc2)CNC(C)(C)C)cc1` (configuration not stated), the inhibition is 16.3% with Plasmodium falciparum [1], -12.62% with Plasmodium berghei and 4.72% in the experiment with Plasmodium falciparum [2].

As for `COc1ccc(C2C(C(=O)Nc3cccc(OC)c3)c3ccccc3C(=O)N2C2CCCCC2)cc1` (configuration not stated), the inhibition in the experiment with Plasmodium falciparum [1] was 46.2%; in the experiment on Plasmodium berghei, -12.06%; in the experiment on Plasmodium falciparum [2], -25.1%.

Turning to `CCOc1ccccc1NC(=O)CN1CCN(C(=O)c2ccco2)CC1`, the inhibition in the experiment on Plasmodium falciparum [1] was 19.3%; in the experiment with Plasmodium berghei it was -13.05%; in the experiment on Plasmodium falciparum [2], 12.9%.

For `COc1cc(C(=O)ON=C(N)Cc2cccc3ccccc23)cc(OC)c1OC`, the inhibition with Plasmodium falciparum [1] is -12.8%; in the experiment on Plasmodium berghei, -15.26%; with Plasmodium falciparum [2], -26.8%.

For the compound `CCN(CC)CCCNc1ccnc2cc3ccccc3cc12`, the results for the inhibition in the experiment on Plasmodium falciparum [1], in the experiment with Plasmodium berghei and in the experiment on Plasmodium falciparum [2] were 30.2%, -14.18% and 20.2%, respectively.

As for `Cc1ccccc1OCCSc1nc2ccc(NC(=O)c3ccccc3)cc2s1`, the values for the inhibition with Plasmodium falciparum [1], in the experiment on Plasmodium berghei and in the experiment with Plasmodium falciparum [2] were 5.46%, -15.11% and -13.8%, respectively.

Turning to `COc1ccc(-c2nonc2NC(=O)c2cccc(Cl)c2)cc1OC`, the figures for the inhibition in the experiment on Plasmodium falciparum [1], with Plasmodium berghei and with Plasmodium falciparum [2] were 18.1%, -15.75% and 12%, respectively.

For `COc1cc(-c2nc(-c3ccccc3)c(-c3ccccc3)[nH]2)cc(OC)c1O`, the inhibition in the experiment with Plasmodium falciparum [1] is 5%; in the experiment on Plasmodium berghei, -13.75%; with Plasmodium falciparum [2] it was -41.1%.

In the case of `Cc1ccc(-c2nc3ccccc3o2)cc1NCc1cc(Cc2ccccc2)ccc1O`, the values for the inhibition with Plasmodium falciparum [1], in the experiment with Plasmodium berghei and with Plasmodium falciparum [2] were 13.9%, -14.9% and -8.19%, respectively.

In the case of `COc1cc(SC)ccc1C(=O)N1CCCC(C)C1` (configuration not stated), the inhibition with Plasmodium falciparum [1] is 23.2%; with Plasmodium berghei it was -13.09%; with Plasmodium falciparum [2], 6.66%.

Consider `CCc1ccc(CNCC(O)c2ccccc2)cc1.Cl` (configuration not stated), for which the inhibition was -40.9% in the experiment on Plasmodium falciparum [1], -12.46% in the experiment with Plasmodium berghei and -20.9% with Plasmodium falciparum [2].

`COc1ccccc1CNC(=O)C1c2ccccc2C(=O)N(CC(C)C)C1c1cccs1` (configuration not stated): the figures for the inhibition with Plasmodium falciparum [1], in the experiment on Plasmodium berghei and in the experiment with Plasmodium falciparum [2] were 8.38%, -12.03% and -15.9%, respectively.

On to `O=C(O)C(=O)O.Oc1ccc(Br)cc1CN1CCN(Cc2cccc(F)c2)CC1`, for which the inhibition in the experiment on Plasmodium falciparum [1] is 27.2%; in the experiment on Plasmodium berghei it was -11.78%; with Plasmodium falciparum [2], -17.6%.

With `COc1ccc(-c2cc(=O)oc3c4c(ccc23)OCN(Cc2ccc(F)cc2)C4)cc1`, the figures for the inhibition in the experiment with Plasmodium falciparum [1], in the experiment on Plasmodium berghei and in the experiment on Plasmodium falciparum [2] were -29.3%, -11.79% and -14.6%, respectively.

Consider `CCCCC(O)(c1ccc(Cl)cc1)C(CN1CCOCC1)c1ccc(Cl)cc1.Cl` (configuration not stated), for which the figures for the inhibition in the experiment on Plasmodium falciparum [1], in the experiment with Plasmodium berghei and in the experiment with Plasmodium falciparum [2] were -10.1%, -12.32% and -22.4%, respectively.

Take `CN(C)c1ccc(N2C(N)=NC(N)=NC2(C)C)cc1`: the inhibition with Plasmodium falciparum [1] is 71.6%; in the experiment on Plasmodium berghei it was -13.4%; in the experiment on Plasmodium falciparum [2], -61.8%.

Take `CCOc1ccc(Nc2ccnc3cc(Cl)ccc23)cc1`: the inhibition in the experiment with Plasmodium falciparum [1] is -4.26%; in the experiment with Plasmodium berghei it was -13.78%; in the experiment with Plasmodium falciparum [2], -52.9%.

Turning to `COc1ccc(Nc2nc(NCc3ccccc3)c3ccccc3n2)cc1`, the figures for the inhibition in the experiment on Plasmodium falciparum [1], in the experiment on Plasmodium berghei and in the experiment with Plasmodium falciparum [2] were -30.2%, -12.84% and -14.7%, respectively.

For the compound `COc1cc2c(cc1OC)C1=NNC(=O)C1=NC(C)(C)C2`, the inhibition with Plasmodium falciparum [1] is 52.9%; in the experiment on Plasmodium berghei, -11.77%; in the experiment on Plasmodium falciparum [2], -26.2%.

For the compound `CCOc1c(Cl)cc(CNC(C)C(O)c2ccccc2)cc1OC` (configuration not stated), the inhibition in the experiment on Plasmodium falciparum [1] was 11.3%; with Plasmodium berghei, -12.71%; in the experiment on Plasmodium falciparum [2], -16%.

Take `Cc1ccc(N2C3c4ccccc4N(S(=O)(=O)c4ccc(C)cc4)C2c2ccccc2N3S(=O)(=O)c2ccc(C)cc2)cc1`: the inhibition in the experiment on Plasmodium falciparum [1] was 24.2%; in the experiment with Plasmodium berghei, -13.78%; in the experiment with Plasmodium falciparum [2] it was -6.27%.

`O=C(NCC1Cc2cccc(-c3ccncc3)c2O1)c1csc2c1CCCC2` (configuration not stated): the inhibition in the experiment with Plasmodium falciparum [1] is 20.6%; in the experiment with Plasmodium berghei, -13.38%; in the experiment with Plasmodium falciparum [2], -19.3%.

Take `CCc1ccc(Nc2cc(C)nc3nc(C)nn23)cc1`: the results for the inhibition in the experiment on Plasmodium falciparum [1], in the experiment on Plasmodium berghei and in the experiment on Plasmodium falciparum [2] were 20.5%, -14.94% and -17.7%, respectively.

Take `CCOC(=O)C1=CN(C)C=C(C(=O)OCC)C1c1cc(Br)c(OCC)c(OC)c1`: the inhibition with Plasmodium falciparum [1] was 22.3%; with Plasmodium berghei, -13.86%; in the experiment on Plasmodium falciparum [2], -20.1%.

A word on the inhibition: it is the relative decrease from the control value, in per cent.
